# From PMC9019904, “AD Informer Set: Chemical tools to facilitate Alzheimer's disease drug discovery” (Alzheimer's & Dementia : Translational Research & Clinical …, 2022)
# Columns and labels:
# [1] = system: HMC3 (human microglia) cell line; experiment: pHrodo-myelin phagocytosis/cell viability high content imaging assay: viability (cell count, nuclear area, nuclear intensity); settings: for Human microglial cytotoxicity at 10 μM (<70% control): HMC3, 10 μM
# Procedure, shortened: (§1)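 BV2 mouse and HMC3 human microglia were treated with compounds at 10 μM for 48 h, with pHrodo-myelin present for the last 20 h. Viability was imaged as total cell count per well and mean nuclear intensity per cell. Values are means of duplicates, normalized to untreated wells as % control.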
# [2] = system: BV2 (mouse microglia) cell line; experiment: as above
# Procedure, shortened: as §1
# physchem = settings: pH 7.4, aqueous buffer, kinetic from dmso stock
# [3] = system: HMC3 (human microglia) cell line; experiment: pHrodo-myelin phagocytosis/cell viability high content imaging assay: phagocytosis signal; format: cell-based
# Procedure, shortened: (§2)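 HCI read-out ~22 h post pHrodo-myelin; phagocytosis + viability simultaneously; 3 parameters extracted; intensity up = early apoptosis, down = later apoptosis.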
# [4] = system: BV2 (mouse microglia) cell line; experiment: as above; format: cell-based
# Procedure, shortened: as §2
# cellular system = settings: published cellular activity at 10 μM; cited from earlier work
# [5] = HMC3 cells, 10 uM compound, 48 hours treatment
# [6] = BV2 cells, 10 uM compound, 48 hours treatment
structure (smiles),measurement,setting,value
O=S(=O)(c1ccc2c(c1)C(=NO)c1cc(S(=O)(=O)N3CCCCC3)ccc1-2)N1CCCCC1 [CA3 (CIL56)],Human microglial cytotoxicity at 10 μM (<70% control),[1]; cell count <70% control,Y (The compound was found to be cytotoxic (cell count threshold: <70% control) when human immortalized microglial cells were dosed at 10 μM (Y: yes))
same,Mouse microglial cytotoxicity at 10 μM (<70% control),"[2]; BV2, 10 μM, cell count <70% control",Y (The compound was found to be cytotoxic (cell count threshold: <70% control) when murine immortalized microglial cells were dosed at 10 μM (Y: yes))
same,solubility kinetic,physchem,1.2 µM
same,Inhibition of human microglial phagocytosis at 10 μM (<70% control),"[3]; HMC3, 10 μM",Y (The compound was found to inhibit phagocytosis (response threshold: <70% control) when human immortalized microglial cells were dosed at 10 μM (Y: yes))
same,Inhibition of mouse microglial phagocytosis at 10 μM (<70% control),"[4]; BV2, 10 μM",Y (The compound was found to inhibit phagocytosis (response threshold: <70% control) when murine immortalized microglial cells were dosed at 10 μM (Y: yes))
CC(C)Nc1cc(-c2c[nH]c(C(=O)N[C@H](CO)c3cccc(Cl)c3)c2)c(Cl)cn1 [Ulixertinib],Mouse microglial cytotoxicity at 10 μM (<70% control),"[2]; 10 μM, BV2",Y (The compound was found to be cytotoxic (cell count threshold: <70% control) when murine immortalized microglial cells were dosed at 10 μM (Y: yes))
same,solubility kinetic,physchem,8.7 µM
same,Inhibition of human microglial phagocytosis at 10 μM (<70% control),"[3]; 10 μM, HMC3",Y (The compound was found to inhibit phagocytosis (response threshold: <70% control) when human immortalized microglial cells were dosed at 10 μM (Y: yes))
same,Stimulation of mouse microglial phagocytosis at 10 μM (>150% control),"[4]; 10 μM, BV2",Y (The compound was found to stimulate phagocytosis (response threshold: >150% control) when murine immortalized microglial cells were dosed at 10 μM (Y: yes))
O=C(Nc1ccc([N+](=O)[O-])cc1Cl)c1cc(Cl)ccc1O [Niclosamide],Reported as cell active (<10 μM),cellular system,Y (Published data supports that the compound is active in a cellular system when dosed at 10 μM (Y/N))
same,solubility kinetic,physchem,17.5 µM
same,Inhibition of human microglial phagocytosis at 10 μM (<70% control),"[3]; HMC3 cells, 10 μM",Y (The compound was found to inhibit phagocytosis (response threshold: <70% control) when human immortalized microglial cells were dosed at 10 μM (Y: yes))
O=c1[nH]c2ccccc2n1C1CCN(CCCC(c2ccc(F)cc2)c2ccc(F)cc2)CC1 [Pimozide],Reported as cell active (<10 μM),cellular system,Y (Published data supports that the compound is active in a cellular system when dosed at 10 μM (Y/N))
same,solubility kinetic,physchem,2.9 µM
CN(C)CC#Cc1ccc(OCCCc2sc(N3CCc4cccc(C(=O)Nc5nc6ccccc6s5)c4C3)nc2C(=O)O)c(F)c1 [A-1155463],solubility kinetic,physchem,1.5 µM
same,Inhibition of human microglial phagocytosis at 10 μM (<70% control),"[3]; HMC3, 10 μM",Y (The compound was found to inhibit phagocytosis (response threshold: <70% control) when human immortalized microglial cells were dosed at 10 μM (Y: yes))
same,Stimulation of mouse microglial phagocytosis at 10 μM (>150% control),"[4]; BV2, 10 μM",Y (The compound was found to stimulate phagocytosis (response threshold: >150% control) when murine immortalized microglial cells were dosed at 10 μM (Y: yes))
Cc1cc(SCc2sc(-c3ccc(C(F)(F)F)c(F)c3)nc2C)ccc1OCC(=O)O [GW0742],Reported as cell active (<10 μM),cellular system,Y (Published data supports that the compound is active in a cellular system when dosed at 10 μM (Y/N))
same,solubility kinetic,physchem,145 µM
Cl.NC(=O)c1cnc(N[C@@H]2CCCC[C@@H]2N)nc1Nc1cccc(-n2nccn2)c1 [P505-15 (PRT06207 HCl)],Reported as cell active (<10 μM),cellular system,Y (Published data supports that the compound is active in a cellular system when dosed at 10 μM (Y/N))
same,solubility kinetic,physchem,118 µM
same,Inhibition of human microglial phagocytosis at 10 μM (<70% control),"[3]; HMC3 cells, 10 μM",Y (The compound was found to inhibit phagocytosis (response threshold: <70% control) when human immortalized microglial cells were dosed at 10 μM (Y: yes))
same,Inhibition of mouse microglial phagocytosis at 10 μM (<70% control),"[4]; BV2 cells, 10 μM",Y (The compound was found to inhibit phagocytosis (response threshold: <70% control) when murine immortalized microglial cells were dosed at 10 μM (Y: yes))
Cc1ccc(S(=O)(=O)O)cc1.Nc1n[nH]cc1-c1cc(Cl)ccc1Oc1cc(F)c(S(=O)(=O)Nc2cscn2)cc1Cl [PF-05089771],Reported as cell active (<10 μM),cellular system,Y (Published data supports that the compound is active in a cellular system when dosed at 10 μM (Y/N))
same,solubility kinetic,physchem,76.4 µM
NC(=O)[C@@H]1CC[C@H](c2ccc(OCc3ccccc3F)cc2)N1 [Raxatrigine],Reported as cell active (<10 μM),cellular system,Y (Published data supports that the compound is active in a cellular system when dosed at 10 μM (Y/N))
same,solubility kinetic,physchem,178 µM
same,Stimulation of mouse microglial phagocytosis at 10 μM (>150% control),"[4]; BV2 cells, 10 μM",Y (The compound was found to stimulate phagocytosis (response threshold: >150% control) when murine immortalized microglial cells were dosed at 10 μM (Y: yes))
CC[C@H](C)[C@H](N)C(=O)NCCN1CCOCC1.Cl.Cl [LM11A-31 dihydrochloride],Reported as cell active (<10 μM),cellular system,Y (Published data supports that the compound is active in a cellular system when dosed at 10 μM (Y/N))
same,solubility kinetic,physchem,178 µM
same,Stimulation of mouse microglial phagocytosis at 10 μM (>150% control),"[4]; BV2 cells, 10 μM",Y (The compound was found to stimulate phagocytosis (response threshold: >150% control) when murine immortalized microglial cells were dosed at 10 μM (Y: yes))
CCc1cc2c(cc1N1CCC(N3CCOCC3)CC1)C(C)(C)c1[nH]c3cc(C#N)ccc3c1C2=O [Alectinib],Human microglial cytotoxicity at 10 μM (<70% control),[1],Y (The compound was found to be cytotoxic (cell count threshold: <70% control) when human immortalized microglial cells were dosed at 10 μM (Y: yes))
same,solubility kinetic,physchem,0.6 µM
same,Inhibition of human microglial phagocytosis at 10 μM (<70% control),"[3]; HMC3, 10 μM",Y (The compound was found to inhibit phagocytosis (response threshold: <70% control) when human immortalized microglial cells were dosed at 10 μM (Y: yes))
same,Stimulation of mouse microglial phagocytosis at 10 μM (>150% control),"[4]; BV2, 10 μM",Y (The compound was found to stimulate phagocytosis (response threshold: >150% control) when murine immortalized microglial cells were dosed at 10 μM (Y: yes))
CC(C)CCC[C@@H](C)[C@H]1CC[C@H]2[C@@H]3CC[C@H]4C[C@H](N)CC[C@]4(C)[C@H]3CC[C@]12C [3α-Aminocholestane],Mouse microglial cytotoxicity at 10 μM (<70% control),"[2]; 10 μM, BV2",Y (The compound was found to be cytotoxic (cell count threshold: <70% control) when murine immortalized microglial cells were dosed at 10 μM (Y: yes))
same,solubility kinetic,physchem,2.2 µM
same,Inhibition of human microglial phagocytosis at 10 μM (<70% control),"[3]; 10 μM, HMC3",Y (The compound was found to inhibit phagocytosis (response threshold: <70% control) when human immortalized microglial cells were dosed at 10 μM (Y: yes))
same,Stimulation of mouse microglial phagocytosis at 10 μM (>150% control),"[4]; 10 μM, BV2",Y (The compound was found to stimulate phagocytosis (response threshold: >150% control) when murine immortalized microglial cells were dosed at 10 μM (Y: yes))
Cc1c(-c2ccc(O)cc2)n(Cc2ccc(OCCN3CCCCCC3)cc2)c2ccc(O)cc12 [Bazedoxifene acetate],solubility kinetic,physchem,10.8 µM
same,Inhibition of human microglial phagocytosis at 10 μM (<70% control),"[3]; 10 μM, HMC3",Y (The compound was found to inhibit phagocytosis (response threshold: <70% control) when human immortalized microglial cells were dosed at 10 μM (Y: yes))
same,Inhibition of mouse microglial phagocytosis at 10 μM (<70% control),"[4]; 10 μM, BV2",Y (The compound was found to inhibit phagocytosis (response threshold: <70% control) when murine immortalized microglial cells were dosed at 10 μM (Y: yes))
"Cl.O=C(NCCCNc1nc(Nc2cccc(CN3CCOCC3)c2)ncc1C1CC1)C1CCC1 [UNC10302867A, reference compound]",1. Cell count (% control),[1]; [5],81.1 % control
same,2. Nuclear Area (% Control),[1]; [5],129.3 % Control
same,3. Nuclear DNA Intensity (% control),[1]; [5],124.9 % control
same,Mouse microglial cytotoxicity at 10 μM (<70% control),"[2]; 10 μM, BV2",Y (The compound was found to be cytotoxic (cell count threshold: <70% control) when murine immortalized microglial cells were dosed at 10 μM (Y: yes))
same,1. Cell count (% control),[2]; [6],17.6 % control
same,2. Nuclear Area (% Control),[2]; [6],154.0 % Control
same,3. Nuclear DNA Intensity (% control),[2]; [6],122.3 % control
same,solubility kinetic,physchem,119 µM
same,Stimulation of human microglial phagocytosis at 10 μM (>150% control),"[3]; 10 μM, HMC3",Y (The compound was found to stimulate phagocytosis (response threshold: >150% control) when human immortalized microglial cells were dosed at 10 μM (Y: yes))
same,"phagocytosis in human microglial cells (< 70% control inhibition, > 150% control stimulation)","[3]; HMC3, 10 μM, pHrodo-myelin",stimulator of phagocytosis
same,4. Phagocytosis (% control),"[3]; HMC3 cells, 10 uM compound, 48 hours treatment, pHrodo-myelin final 20 hours",290.0 % control
same,Stimulation of mouse microglial phagocytosis at 10 μM (>150% control),"[4]; 10 μM, BV2",Y (The compound was found to stimulate phagocytosis (response threshold: >150% control) when murine immortalized microglial cells were dosed at 10 μM (Y: yes))
same,"phagocytosis in mouse microglial cells (< 70% control inhibition, > 150% control stimulation)","[4]; BV2, 10 μM, pHrodo-myelin",stimulator of phagocytosis
same,4. Phagocytosis (% control),"[4]; BV2 cells, 10 uM compound, 48 hours treatment, pHrodo-myelin final 20 hours",282.0 % control
Cc1cc(Nc2nc(N[C@@H](C)c3ncc(F)cn3)ncc2Cl)n[nH]1 [AZD-1480],Mouse microglial cytotoxicity at 10 μM (<70% control),"[2]; BV2 cells, 10 μM, cell count <70% control",Y (The compound was found to be cytotoxic (cell count threshold: <70% control) when murine immortalized microglial cells were dosed at 10 μM (Y: yes))
same,Reported as cell active (<10 μM),cellular system,Y (Published data supports that the compound is active in a cellular system when dosed at 10 μM (Y/N))
same,solubility kinetic,physchem,141 µM
same,Stimulation of mouse microglial phagocytosis at 10 μM (>150% control),"[4]; BV2 cells, 10 μM",Y (The compound was found to stimulate phagocytosis (response threshold: >150% control) when murine immortalized microglial cells were dosed at 10 μM (Y: yes))
